Laboratory results published in article PMC9506633, “Design, synthesis, anti-proliferative evaluation, docking, and MD simulations studies of new thiazolidine-2,4-diones targeting VEGFR-2 and apoptosis pathway” (PLoS ONE, 2022).
“Also recorded” adds a separate entry of the source.

What was measured:
[1] = MTT anti-proliferative assay, Caco-2; assay type: cell-based; conditions: African green monkey (Vero); human (Caco-2); SI = Cytotoxicity against Vero cells / Cytotoxicity against Caco-2 cell line; read-out: Selectivity index (Caco-2)
Method: (§1) The cytotoxicity effects of the synthesized candidates were evaluated against A549, Caco-2, HepG2, and MDA-mb-231 cell lines. MTT assay method was applied using the sub-IC50 concentrations of each compound as the treatment dose. Doxorubicin was used as a reference molecule. […] Also, it was noticed that Caco-2 was the most sensitive cell line.
(§2) The synthesized compounds were evaluated for their anti-proliferative activities against A549, Caco-2, HepG2, and MDA-mb-231 cell lines using the MTT assay protocol as described in S.1.2. Section in S1 File.
(§3) Mammalian cell lines culture
(§4) CaCo-2, and A549 cell lines were cultured on DMEM media, meanwhile MDA-MB-231 and hepG-2 cell line were cultured on RBMI media. The cultured media were supplemented with 200 mM L-glutamine, 10.0% fetal bovine serum (Lonza), and 1.0% penicillin/streptomycin. Cells were seeded into 25.0 cm tissue culture flasks and incubated at 37 ◦C in a 5.0% CO 2 incubator for 24 h or till confluency.
(§5) The safety profiles of the tested compounds were checked on one non-cancerous cell line (Vero) to […]
(§6) of 100.0 µl of 6×10^4 cell/ml cells was seeded in to each well of a 96-well plate and then the plates were incubated at 37 °C in a humidified 5.0% CO2 incubator for 24 h. At the end of incubation period, the exhausted medium was replaced with 100.0 µl of different concentrations of the designated treatment (prepared in RPMI medium starting from 1.0 mM). The inoculated plates were incubated at the same growth conditions for another 24 h. At the end of incubation, cellular viability was assessed using MTS assay kit (Promega) according to the manual instruction.
(§7) S.1.2. In-vitro anticancer activity
(§8) Anticancer activities of the tested compounds against CaCo-2, MDA-MB-231, and hepG-2 cell lines were quantified using MTS assay kit (Promega) as described by the Manufacturer. […]

[2] = system: Caco-2; test: MTT anti-proliferative assay, Caco-2; assay type: cell-based; conditions: Homo sapiens; Caco-2 cell line, MTT; read-out: Anti-proliferative activity (IC50 μM) Caco2
Method: as §1, §2, §3, §4, §5, §6, §7, §8

[3] = system: HepG2; test: MTT anti-proliferative assay, HepG2; assay type: cell-based; conditions: for IC50: Homo sapiens, HepG2 cell line, MTT; for Selectivity index (HepG2): SI = Cytotoxicity against Vero cells / Cytotoxicity against HepG2 cell line
Method: as §1, §2, §3, §4, §5, §6, §7, §8

[4] = target: T1, VEGFR-2 (Homo sapiens, UniProt P35968); test: In vitro VEGFR-2 inhibition (VEGFR-2 ELISA kit); assay type: biochemical; conditions: for IC50: ELISA kit; for HillSlope (best-fit value) / LogIC50 (best-fit value): dose-response curve fit, raw data S.5
T1 construct: purchased
T1 sequence (P35968 20-1356): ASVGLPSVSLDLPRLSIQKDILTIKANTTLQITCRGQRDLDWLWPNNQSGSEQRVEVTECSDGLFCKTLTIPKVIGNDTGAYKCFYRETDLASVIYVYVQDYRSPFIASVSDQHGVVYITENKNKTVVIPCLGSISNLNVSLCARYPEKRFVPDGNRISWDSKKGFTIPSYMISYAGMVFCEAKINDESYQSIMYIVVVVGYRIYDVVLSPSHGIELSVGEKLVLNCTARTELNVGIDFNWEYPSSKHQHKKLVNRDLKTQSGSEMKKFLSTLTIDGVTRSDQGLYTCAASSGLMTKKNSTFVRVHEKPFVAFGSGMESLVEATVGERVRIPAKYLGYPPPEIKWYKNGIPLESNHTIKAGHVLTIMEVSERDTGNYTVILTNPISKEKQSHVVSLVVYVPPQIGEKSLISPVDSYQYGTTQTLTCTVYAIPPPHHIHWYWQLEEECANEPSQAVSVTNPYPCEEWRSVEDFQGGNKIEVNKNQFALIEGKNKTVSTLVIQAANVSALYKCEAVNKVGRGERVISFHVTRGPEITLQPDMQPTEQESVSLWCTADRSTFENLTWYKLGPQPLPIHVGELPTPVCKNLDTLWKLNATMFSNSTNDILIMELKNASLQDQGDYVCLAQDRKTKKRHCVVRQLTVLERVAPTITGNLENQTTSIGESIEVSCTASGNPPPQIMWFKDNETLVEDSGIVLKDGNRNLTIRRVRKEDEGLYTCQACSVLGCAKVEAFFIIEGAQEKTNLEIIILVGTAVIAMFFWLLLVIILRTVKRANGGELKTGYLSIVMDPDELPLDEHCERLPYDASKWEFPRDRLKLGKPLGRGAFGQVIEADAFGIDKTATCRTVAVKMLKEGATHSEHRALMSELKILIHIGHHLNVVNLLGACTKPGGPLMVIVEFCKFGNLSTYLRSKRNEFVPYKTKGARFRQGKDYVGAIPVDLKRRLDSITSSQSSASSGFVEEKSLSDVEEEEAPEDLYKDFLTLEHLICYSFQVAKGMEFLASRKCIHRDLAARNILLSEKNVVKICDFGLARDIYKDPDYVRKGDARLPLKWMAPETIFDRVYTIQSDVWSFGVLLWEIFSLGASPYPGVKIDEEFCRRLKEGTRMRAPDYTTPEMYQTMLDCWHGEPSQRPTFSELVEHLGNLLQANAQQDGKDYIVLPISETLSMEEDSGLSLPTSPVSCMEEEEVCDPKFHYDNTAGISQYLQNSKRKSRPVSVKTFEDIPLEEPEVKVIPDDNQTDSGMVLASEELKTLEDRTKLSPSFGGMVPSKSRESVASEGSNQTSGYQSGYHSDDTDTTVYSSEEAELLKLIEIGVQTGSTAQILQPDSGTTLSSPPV
Method: Compounds 10a, b and 14a-c were evaluated for their VEGFR-2inhibitory activity.
VEGFR-2 ELISA kit was used in this test as described in S.1.3. Section in S1 File. […]
S.1.3. In vitro VEGFR-2 kinase assay
All the synthesized compounds were tested for its inhibitory activity against VEGFR-2. Human VEGFR-2 ELISA kit (Enzyme-Linked Immunosorbent Assay) was utilized in this test. At first, specific antibody for VEGFR-2 was seeded on a 96-well plate and 100 μL of the standard solution or the tested compound was added, all were incubated at room temperature for 2.5 h. Then washed, 100 μL of the prepared biotin antibody was added, then incubated at room temperature for additional 1 h. and washed. Then, 100 μL of streptavidin solution was added and incubated for 45 min. at room temperature. Washed again, 100 μL of TMB Substrate reagent was added and incubated for 30 min. at room temperature. 50 μL of the stop solution was added, then read at 450 nm immediately. The standard curve was drawn, concentrations on the X-axis and the absorbance

[5] = system: A549; test: MTT anti-proliferative assay, A549; assay type: cell-based; conditions: for IC50: Homo sapiens, A549 cell line, MTT; for Selectivity index (A549): SI = Cytotoxicity against Vero cells / Cytotoxicity against A549 cell line
Method: as §1, §2, §3, §4, §5, §6, §7, §8

[6] = system: MDA-mb-231; test: MTT anti-proliferative assay, MDA-mb-231; assay type: cell-based; conditions: for IC50: Homo sapiens, MDA-mb-231 cell line, MTT; for Selectivity index (MDA-MB-231): SI = Cytotoxicity against Vero cells / Cytotoxicity against MDA-MB-231 cell line
Method: as §1, §2, §3, §4, §5, §6, §7, §8

[7] = Safety assay: cytotoxicity against Vero non-cancer cell line; assay type: cell-based; conditions: African green monkey, Vero cells (non-cancer cell line); Vero normal cell line
Method: In this work, the safety pattern of the synthesized derivatives 10a, b and 14a-c was also evaluated by testing their in vitro cytotoxicity against Vero non-cancer cell line using the MTT assay protocol.
Section in S1 File.
Mammalian cell lines culture […]
The cultured media were supplemented with 200 mM L-glutamine, 10.0% fetal bovine serum (Lonza), and 1.0% penicillin/streptomycin. Cells were seeded into 25.0 cm tissue culture flasks and incubated at 37 ◦C in a 5.0% CO 2 incubator for 24 h or till confluency.
as §5
as §6, with “instruction. […]” for “instruction.”

[8] = system: Caco-2 cells; test: In vitro scratch (wound healing, migration) assay; assay type: cell-based; conditions: Caco-2, 1 μM
Method: The in vitro scratch assay[38] was used to assess the prospective of compound 14a to inhibit the ability of Caco-2 cells to migrate and heal. The basic idea behind this test is to create a scratch in a cancer cell line monolayer, measure the diameter at the start time and at regular intervals to investigate the potential of the cancer cell to migrate and heal. The findings of the treated cell line are then compared to the untreated cell line.
Cell Migration assay was conducted according to the reported protocol as described [59]in S.1.5. Section in S1 File.
S.1.4. Selectivity index (SI)
The selectivity index values of the tested compounds on cancer cells were calculated as described by Koch et al., with slight modifications; SI=IC50nc/IC50cc, where IC50nc: the IC50 value of the tested compound on normal cells and IC 50cc: IC50 of the tested compound on cancer cell line .
S.1.5. Wound healing assay (Migration assay)
CaCo-2 cells were grown to 95.0% confluency in a complete DMEM medium and then the wounds were formed using a plastic tip. […] After incubation at 37°C and 5.0% CO2 for 24h, the cells were washed with PBS and the wounds distance was determined as the scratch width of the treated and untreated groups using […]
S.1.6. […] The RTq-PCR was done using SYBR Green dye (QuantiTect SYBR Green PCR Kits) and Light Cycler fluorimeter (Bio-RAD S1000 Tm thermal cycler). […]

[9] = system: TGF; test: RT-qPCR gene expression in Caco-2, TGF; assay type: cell-based; conditions: Caco-2, 1.5 μM, compared to control cells
From the text: (§9) The molecular anticancer mode of action of 14a was investigated by screening their ability to control the gene expression levels of Bcl2, Bcl-xl, TGF and Survivin genes as reported in S.1.6. Section in S1 File.
(§10) S.1.4. Selectivity index (SI) […]
(§11) S.1.6. Gene expression pattern alt ernation of cancer cell after 1 4a treatment The molecular anticancer mode of action of 14a was investigated by screening their ability to affect the gene expression levels of Bcl2, Bcl -xl, TGF and Survivin genes using specific forward and reverse primers and RTq-PCR technique (Table 1) in CaCo-2 cells (chosen as the most sensitive cancer cell line). After cellular treatment, CaCo-2 cell line was cultured into 12 well plates (6×10^3 cell/ml) for 24 h. with the sub-IC50 concentration of 14a. After treatment, total RNA extraction was performed using RNA extraction kit (Qiagen, Germany). Then, 1 ug of the obtained RNA was used to synthesiz cDNA using cDNA synthesis kit (Promega Corp., Madison, WI) as recommended by the manufacturer. Simultaneously, GAPDH forward and reverse primers (Table 1) were used to amplify the house keeping gene as internal control for standardization of PCR products. The RTq-PCR was done using SYBR Green dye (QuantiTect SYBR Green PCR Kits) and Light Cycler fluorimeter (Bio-RAD S1000 Tm thermal cycler). […]

[10] = system: Bcl-2; test: RT-qPCR gene expression in Caco-2, Bcl-2; assay type: cell-based; conditions: Caco-2, 1.5 μM, compared to control cells
From the text: as §9, §10, §11

[11] = system: Bcl-xl; test: RT-qPCR gene expression in Caco-2, Bcl-xl; assay type: cell-based; conditions: Caco-2, 1.5 μM, compared to control cells
From the text: as §9, §10, §11

[12] = system: Survivin; test: RT-qPCR gene expression in Caco-2, Survivin; assay type: cell-based; conditions: Caco-2, 1.5 μM, compared to control cells
From the text: as §9, §10, §11

Compound	selectivity ratio [1]	IC50 [2] [µM]	IC50 [3] [µM]	Selectivity index (HepG2) [3]	IC50 [4] [µM]	HillSlope (best-fit value) [4]	LogIC50 (best-fit value) [4]	IC50 [5] [µM]	Selectivity index (A549) [5]	IC50 [6] [µM]	Selectivity index (MDA-MB-231) [6]	IC50 at 24 h [7] [µM]	Inhibition of migration and healing of Caco-2 cells ([8]; 24 h)	Width of the scratch ([8]; after 24 h, control scratch width at 0 hr 0.356 mm) [mm]	TGF gene expression level [9]	Bcl-2 gene expression level [10]	Bcl-xl gene expression level [11]	Survivin gene expression level [12]
COc1ccc2[nH]c(=O)c(/C=C3\SC(=O)N(CC(=O)Nc4ccc(Cl)cc4)C3=O)cc2c1 [Compound 10a, (Z)-N-(4-Chlorophenyl) -2-(5-((6-methoxy-2-oxo-1,2-dihydroquinolin-3-yl)methylene) -2,4-dioxothiazolidin-3-yl)acetamide]	2.35	82.5 ± 7.2	174 ± 16.3	1.118	0.0652 ± 0.0055	-0.4587	1.814 Log (nM)	85 ± 7.5	2.280	132 ± 5.2	1.460	194 ± 18.2	–	–	–	–	–	–
COc1ccc2[nH]c(=O)c(/C=C3\SC(=O)N(CC(=O)Nc4cc(Cl)ccc4Cl)C3=O)cc2c1 [Compound 10b, (Z)-N-(2,5-Dichlorophenyl)-2-(5-((6-methoxy-2-oxo-1,2-dihydroquinolin-3-yl)methylene)-2,4-dioxothiazolidin-3-yl)acetamide]	25.3	62.5 ± 5.4	71 ± 6.4	22.250	0.165 ± 0.0153	-0.3514	2.216 Log (nM)	92.5 ± 8.6	17.080	31.5 ± 2.5	51.333	1580 ± 155	–	–	–	–	–	–
O=C(CN1C(=O)SC(=C2C(=O)Nc3ccccc32)C1=O)Nc1ccc(Cl)cc1 [Compound 14a, N-(4-Chlorophenyl)-2-(2,4-dioxo-5-(2-oxoindolin-3-ylidene)thiazolidin-3-yl)acetamide]	212	1.5 ± 0.08	31.5 ± 2.5	9.196	0.0915 ± 0.0082	-0.4675	1.961 Log (nM)	170 ± 14.5	1.704	84 ± 7.3	3.375	290 ± 28.3	inhibit the migration and healing of Caco-2 cells in a significant manner; also recorded: significantly inhibited the ability of cancer cells to migrate and heal	0.293	significant reduction; also recorded: significant down-regulation; also recorded: downregulate	significant reduction; also recorded: significant down-regulation; also recorded: downregulate	non-detectable change	significant reduction; also recorded: significant down-regulation; also recorded: downregulate
O=C(CN1C(=O)SC(=C2C(=O)Nc3ccccc32)C1=O)Nc1cc(Cl)ccc1Cl [Compound 14b, N-(2,5-Dichlorophenyl)-2-(2,4-dioxo-5-(2-oxoindolin-3-ylidene)thiazolidin-3-yl)acetamide]	17.1	74 ± 6.5	42.5 ± 3.2	29.917	0.0858 ± 0.0076	-0.5620	1.934 Log (nM)	292 ± 25.1	4.340	94.5 ± 8.4	13.555	1270 ± 126	–	–	–	–	–	–
O=C(CN1C(=O)SC(=C2C(=O)Nc3ccccc32)C1=O)NCCc1ccccc1 [Compound 14c, 2-(2,4-Dioxo-5-(2-oxoindolin-3-ylidene)thiazolidin-3-yl)-N-phenethylacetamide]	5.07	192 ± 18.1	92 ± 8.1	10.601	0.0815 ± 0.0073	-0.4220	1.911 Log (nM)	282 ± 27.3	3.463	484 ± 47.2	2.020	–	–	–	–	–	–	–
COc1cccc2c1C(=O)c1c(O)c3c(c(O)c1C2=O)C[C@@](O)(C(=O)CO)C[C@@H]3O[C@H]1C[C@H](N)[C@H](O)[C@H](C)O1 [Doxorubicin, reference compound]	–	3.5 ± 0.22	1.2 ± 0.07	–	–	–	–	86.4 ± 7.1	–	0.98 ± 0.001	–	–	–	–	–	–	–	–
